The values that follow come from patent US8759301B2, “Gene fusion targeted therapy” (The Regents of The University of Michigan, priority 2010, dated 2014).

Numbering of substitutions follows the chain as printed. Like-named read-outs stand apart in the source and are kept apart here. Where a SMILES comes first, the peptide text is derived from it.

For one data set, the system named is DU145. Put plainly: Cell invasion with TAT-peptides, DU145. As to conditions: FIG. 39. The format is cell-based. An excerpt: (§1) Invaded cells were stained with crystal violet and photographed.
The subject of data set [1] is VCaP. Briefly: Cell proliferation with TAT-peptide, VCaP. The format is cell-based. As to conditions: FIG. 40. An excerpt: Standard cell proliferation and apoptosis assays (Chinnaiyan et al., Cell, 1995. 81(4): p. 505-12; Chinnaiyan et al., Proc Natl Acad Sci USA, 2000. 97(4): p. 1754-9; Varambally et al., Nature, 2002. 419(6907): p. 624-9) are used to assess the inhibitory role of peptides in prostate cell proliferation driven by TMPRSS2:ETS fusions, using both the over-expression series and stable-knockdown series.

The subject of data set [2] is VCaP. Briefly: DNA damage in VCaP with TAT peptides. As to conditions: FIG. 42. Type of data set: cell-based.
The next data set addresses T1, AR binding to ETS domain (Homo sapiens, UniProt P11308).
T1 sequence (P11308 311-391 limits assumed): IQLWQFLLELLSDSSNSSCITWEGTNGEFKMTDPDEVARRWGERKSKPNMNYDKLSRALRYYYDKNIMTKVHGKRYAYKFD

The subject of data set [3] is VCaP.
Method: (§2) Briefly, equal numbers of the indicated cells were seeded onto the basement membrane matrix (EC matrix, Chemicon) present in the insert of a 24-well culture plate, with fetal bovine serum added to the lower chamber as a chemoattractant. After 48 h, non-invading cells and the EC matrix were removed by a cotton swab. Invaded cells were stained with crystal violet and photographed. The inserts were treated with 10% acetic acid and absorbance was measured at 560 nm.
For a further data set, the target named is T2, ERG (Homo sapiens, UniProt P11308).
T2 sequence (P11308 1-479): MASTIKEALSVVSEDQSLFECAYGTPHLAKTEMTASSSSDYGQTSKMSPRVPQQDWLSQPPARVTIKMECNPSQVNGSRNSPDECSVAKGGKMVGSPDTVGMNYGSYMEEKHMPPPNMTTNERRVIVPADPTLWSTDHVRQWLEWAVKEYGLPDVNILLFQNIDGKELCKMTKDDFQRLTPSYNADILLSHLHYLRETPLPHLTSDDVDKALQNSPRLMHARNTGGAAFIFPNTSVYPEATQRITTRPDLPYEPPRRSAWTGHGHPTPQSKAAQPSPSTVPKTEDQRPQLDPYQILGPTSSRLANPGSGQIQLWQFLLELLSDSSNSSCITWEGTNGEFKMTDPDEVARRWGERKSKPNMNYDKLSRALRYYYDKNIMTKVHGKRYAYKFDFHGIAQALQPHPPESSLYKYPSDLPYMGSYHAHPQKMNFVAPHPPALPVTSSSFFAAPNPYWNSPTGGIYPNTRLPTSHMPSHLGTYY

In data set [4] the test system is VCaP. Briefly: Cell invasion with TAT-peptides, VCaP. The settings on record: FIG. 39.
Method: as §2
Data set [5] deals with RWPE-1 cells transduced with ERG adenovirus. Put plainly: ERG-mediated invasion of RWPE-1 cells transduced with ERG adenovirus. Type of data set: cell-based. As to conditions: TAT-tagged peptides, 2 μM, 48 hours, RWPE-1 with ERG adenovirus. As to the method:
as §1
To investigate the ability of ERG-binding peptides to block ERG-mediated invasion, the prostate cell lines RWPE-1 transduced with ERG or LACZ adenovirus were incubated with TAT-tagged peptides. […] The relative number of invaded cells was also quantified by colorimetric assays.

Data set [6] relates to TMPRSS2-ERG fusion transcript in LNCaP cells. As to conditions: DHT 10 nM, 12 hours. As to the method: It was investigated whether stimulation with androgen (e.g. DHT) could create gene fusions by coupling androgen stimulation with an agent that causes DNA double strand breaks. LNCaP cells were hormone depleted, followed by stimulation with DHT (10 nM, 12 hours), irradiation (1 or 3 Gy) and clonal expansion of single cells in 96 well plates using flow sorting. The presence of the TMPRSS2-ERG fusion transcript was determined using quantitative reverse-transcription PCR (QRT-PCR) with both SYBR green and TaqMan assays spanning the chimeric region.

Data set [7] concerns TMPRSS2 and ERG loci in LNCaP cells.
For data set [8], the system named is TMPRSS2 and ERG loci in DU145 cells.
Data set [9] concerns TMPRSS2-ERG and wild-type ERG transcripts. The format is cell-based. On the procedure:
All PCR experiments were performed in triplicates.

The target in data set [10] is T3, ETS domain stretch RALRYYYDK (Arg367 to Lys375 in ERG), R367→K (Homo sapiens, UniProt P11308, R367K).
T3 construct: used a series of overlapping 19 amino acids segments of ETS domain; made in house
T3 sequence (P11308 311-391 R367K): T1 sequence (P11308 311-391 limits assumed) with R57K
The format is binding. An excerpt:
Interactive phage clones were sequenced and analyzed using bioinformatics approaches to identify consensus peptide sequence. […] The domains within ERG that mediate the binding of isolated phage clones were mapped using a panel of ERG deletion mutants expressed as HaloTag fusion protein. A total of 6 domains, namely N-term, ETS, CAE, PNT, CD, and CTD (Carrere et al., Oncogene, 1998. 16(25): p. 3261-8), were cloned and expressed in TNT SP6 wheat germ system. Without purification, the expression reactions were coated on HaloLink Array system and incubated with individual phage clones. The interaction signal was detected by Cy3-labled anti-M13 antibody, which is specifically directed against the phage capsid protein (FIG. 28). […] Further mapping studies used a series of overlapping 19 amino acids segments of ETS domain specifically localized the binding site to a 9 amino-acids conserved stretch […] (SEQ ID NO. 1) corresponding to the residues Arg^367 to Lys^375 in ERG (FIG. 29). The conserved region of the amino acids specifically involved in peptide binding was then located.

Method for AR binding to ETS domain: Beads were eluted by SDS loading buffer and blotted with anti-GST mAb specifically against GST-AR (FIG. 30).
The cDNAs and fragments are cloned into pFN19A vector per manufacturer's protocol. In vitro translated proteins are generated by a wheat germ expression system (Promega) and immobilized onto HaloLink magnetic beads. After washing, the conjugated beads are incubated with GST-AR fusion proteins in the presence or absence of peptides. The bound proteins are analyzed by SDS-PAGE and blotted with anti-GST mAb (Sigma).

On to “TAT-LSFGSLP: TAT linked to LSFGSLP (SEQ ID NO: 2) (not fully specified; left off: small tags and cut ends)”, for which the DU145 invasion entry in the data set on DU145 is listed as “not”. For the same molecule, in the data set with VCaP [1], the VCaP proliferation result is “inhibits”. Also, the “DNA damage in VCaP” value in the data set with VCaP [2] is “inhibit”. The “ERG interactome (through ETS domain)” value with AR binding to ETS domain is on record as “blocked”. Further, in the data set with VCaP [3], the “cell invasion driven by ERG” value is on record as “attenuated”. In the data set with ERG, the ERG transcription activities entry is “blocked”. Further, the VCaP invasion entry in the data set on VCaP [4] is reported as “inhibit”.

With LPPYLFT, the ERG-driven invasion result in data set [5] was “blocked”.

As for `C[C@]12CCC(=O)C[C@@H]1CC[C@@H]1[C@@H]2CC[C@]2(C)[C@@H](O)CC[C@@H]12` [DHT, Dihydrotestosterone], the “clones harboring TMPRSS2-ERG fusion transcripts” value worked out at 2.3% in data set [6] (then 1 Gy irradiation) and 25% in [6] (then 3 Gy irradiation). In addition, in data set [7], the “proximity between the TMPRSS2 and ERG loci” value is “induced proximity”. Further, in [8], the “proximity between TMPRSS2 and ERG” value is recorded as “not observed”.

In the case of “TAT-LPPYLFT: TAT linked to LPPYLFT (SEQ ID NO: 45) (not fully specified; left off: small tags and cut ends)”, in the data set on DU145, the DU145 invasion result is reported as “not”. Besides, the VCaP proliferation result in the data set on VCaP [1] was “inhibited”. Also, the “ERG interactome (through ETS domain)” value with AR binding to ETS domain is on record as “blocked”. Also, the “cell invasion driven by ERG” value in the data set with VCaP [3] was “attenuated”. In addition, the ERG transcription activities entry in the data set with ERG is recorded as “blocked”. The VCaP invasion result in the data set on VCaP [4] is “inhibit”.

Turning to “UGG UCA GAG AGA AGC AAU A [wild-type ERG siRNA]”, the TMPRSS2-ERG expression result in data set [9] is recorded as “did not affect”.

For `CC(C)C[C@H](NC(=O)[C@H](CO)NC(=O)CNC(=O)[C@H](Cc1ccccc1)NC(=O)[C@H](CO)NC(=O)[C@@H](N)CC(C)C)C(=O)N1CCC[C@H]1C(=O)O` [LSFGSLP] (H-LSFGSLP-OH), the “phage peptide binding after single amino acid substitution R367→K” value in [10] is given as “completely abolished”.
